From patent publication US10023570B2 (Array BioPharma, Inc., priority 2015, dated 2018)
Counter-ions that a name gives are not always drawn. Like-named read-outs stand apart in the source and are kept apart here.

Columns and labels:
[1] = molecular target: Kif5b-RET fusion protein in HEK-293 cells (Homo sapiens, UniProt P07949); assay: cell-based
Experimental: The cellular potency of a compound inhibiting RET kinase was determined in HEK-293 cells expressing a Kif5b-RET fusion protein. Briefly, HEK-293 cells expressing a Kif5b-RET fusion protein were plated at 50K cells/well in 96 well poly-D-Lysine coated plates the day prior to the assay. The cells were incubated for 1 hour with test compound in DMEM (Dulbecco's Modified Eagle Medium) at a final DMSO concentration of 0.5%. […] After 1 hour the media was removed, the cells were fixed with 3.8% formaldehyde for 20 min, washed with PBS, and permeabilized for 10 min with 100% methanol. […] All antibodies were diluted in LI-COR Block containing 0.05% Tween. The plates were washed with PBS-0.05% Tween20, 100 μL PBS was added to each well, and the plates were read on a LI-COR Aerius fluorescent plate reader. The phospho-RET signal was normalized to the GAPDH signal. […] The IC50 value is the point where the curve crosses 50 POC.

[2] = molecular target: human KDR protein in HEK-293 cells (Homo sapiens (Human), UniProt P35968); assay: KDR Cell Assay (phospho-KDR in HEK-293 cells expressing inducible KDR); type: cell-based; details: pKDR Cell HEK 10% FBS IC50, HEK-293 cells expressing inducible KDR, VEGF stimulated
Procedure, shortened: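 HEK-293 cells with inducible human KDR were treated with compound for 1 h in DMEM (0.25% DMSO final), then lysed. Phospho-KDR was quantified by Meso Scale immunoassay, expressed as percent of control, and IC50 taken where a 4-parameter logistic fit crossed 50 POC.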

[3] = molecular target: N-terminal GST tagged recombinant human RET cytoplasmic domain (aa 658-end), wild type RET kinase (Homo sapiens (Human), UniProt P07949); assay: RET Enzyme Assay (HTRF KinEASE-TK), wild type RET; type: biochemical
[4] = HEK-293 cells expressing Kif5b-RET, read-out: KIF5B-RET pTYR1062 Cell IC50
[5] = HEK-293 cells expressing Kif5b-RET, phospho-RET(Tyr1062), read-out: KIF5B-RET pTYR1062 Cell IC50

human KDR protein in HEK-293 cells, sequence (P35968 20-1356): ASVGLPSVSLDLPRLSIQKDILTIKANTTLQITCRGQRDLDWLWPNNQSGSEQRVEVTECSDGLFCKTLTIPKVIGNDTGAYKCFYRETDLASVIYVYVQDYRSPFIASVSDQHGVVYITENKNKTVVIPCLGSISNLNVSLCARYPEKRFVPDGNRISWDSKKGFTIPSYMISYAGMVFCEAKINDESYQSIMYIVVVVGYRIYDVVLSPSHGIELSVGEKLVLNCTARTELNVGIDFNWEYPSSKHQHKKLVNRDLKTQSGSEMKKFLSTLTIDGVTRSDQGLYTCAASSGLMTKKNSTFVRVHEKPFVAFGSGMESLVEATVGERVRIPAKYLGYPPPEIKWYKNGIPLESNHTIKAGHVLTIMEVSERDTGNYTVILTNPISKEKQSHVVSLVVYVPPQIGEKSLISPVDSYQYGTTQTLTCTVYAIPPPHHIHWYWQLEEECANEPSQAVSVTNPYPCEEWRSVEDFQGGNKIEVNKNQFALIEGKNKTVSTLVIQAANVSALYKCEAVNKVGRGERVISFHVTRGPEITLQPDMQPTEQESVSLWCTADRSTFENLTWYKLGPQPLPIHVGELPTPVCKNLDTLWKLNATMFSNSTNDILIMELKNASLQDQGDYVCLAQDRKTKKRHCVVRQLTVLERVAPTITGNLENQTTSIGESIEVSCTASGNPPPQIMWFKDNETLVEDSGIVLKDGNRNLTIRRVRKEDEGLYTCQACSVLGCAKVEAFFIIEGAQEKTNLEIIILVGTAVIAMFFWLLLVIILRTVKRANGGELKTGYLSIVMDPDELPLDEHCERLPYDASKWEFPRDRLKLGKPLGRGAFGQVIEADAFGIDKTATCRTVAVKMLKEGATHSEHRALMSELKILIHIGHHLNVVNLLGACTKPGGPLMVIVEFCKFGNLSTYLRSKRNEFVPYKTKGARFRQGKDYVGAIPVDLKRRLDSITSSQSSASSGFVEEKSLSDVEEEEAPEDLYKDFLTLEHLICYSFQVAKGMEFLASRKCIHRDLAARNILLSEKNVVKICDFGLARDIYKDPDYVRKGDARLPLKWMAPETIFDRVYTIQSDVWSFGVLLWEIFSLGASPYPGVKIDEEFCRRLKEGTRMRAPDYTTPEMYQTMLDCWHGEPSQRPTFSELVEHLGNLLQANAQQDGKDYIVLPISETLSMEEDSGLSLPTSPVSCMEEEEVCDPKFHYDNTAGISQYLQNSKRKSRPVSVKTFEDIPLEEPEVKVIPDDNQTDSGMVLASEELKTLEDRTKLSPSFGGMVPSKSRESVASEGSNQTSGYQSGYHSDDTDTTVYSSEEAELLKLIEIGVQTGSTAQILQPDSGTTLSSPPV
Kif5b-RET fusion protein in HEK-293 cells, sequence (P07949 29-1114 limits assumed): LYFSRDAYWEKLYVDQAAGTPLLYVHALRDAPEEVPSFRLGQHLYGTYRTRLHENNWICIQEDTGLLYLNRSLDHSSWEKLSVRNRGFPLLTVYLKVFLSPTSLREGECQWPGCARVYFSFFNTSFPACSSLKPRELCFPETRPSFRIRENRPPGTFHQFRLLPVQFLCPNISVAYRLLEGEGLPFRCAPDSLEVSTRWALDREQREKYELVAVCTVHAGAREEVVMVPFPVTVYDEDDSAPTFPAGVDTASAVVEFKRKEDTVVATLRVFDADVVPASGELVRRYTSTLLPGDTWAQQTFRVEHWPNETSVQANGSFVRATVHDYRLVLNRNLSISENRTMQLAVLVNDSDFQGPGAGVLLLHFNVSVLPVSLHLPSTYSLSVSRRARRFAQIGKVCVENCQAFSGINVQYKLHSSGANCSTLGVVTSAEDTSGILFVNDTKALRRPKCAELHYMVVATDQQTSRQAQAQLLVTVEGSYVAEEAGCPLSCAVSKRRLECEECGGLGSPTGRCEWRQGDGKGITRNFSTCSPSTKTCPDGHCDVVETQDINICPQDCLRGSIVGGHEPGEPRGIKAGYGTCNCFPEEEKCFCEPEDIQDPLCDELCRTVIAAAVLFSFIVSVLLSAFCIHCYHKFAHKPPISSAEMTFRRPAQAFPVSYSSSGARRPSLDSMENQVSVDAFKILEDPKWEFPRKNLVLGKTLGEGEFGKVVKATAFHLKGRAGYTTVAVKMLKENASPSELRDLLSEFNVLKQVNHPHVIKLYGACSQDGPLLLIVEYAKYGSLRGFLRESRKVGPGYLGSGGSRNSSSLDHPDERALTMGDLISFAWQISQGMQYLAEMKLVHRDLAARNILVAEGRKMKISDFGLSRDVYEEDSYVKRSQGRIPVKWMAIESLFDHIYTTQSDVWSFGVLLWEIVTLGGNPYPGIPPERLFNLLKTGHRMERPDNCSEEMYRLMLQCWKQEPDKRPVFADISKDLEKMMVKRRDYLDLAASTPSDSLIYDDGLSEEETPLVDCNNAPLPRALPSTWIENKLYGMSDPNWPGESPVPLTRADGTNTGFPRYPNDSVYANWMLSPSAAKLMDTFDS
N-terminal GST tagged recombinant human RET cytoplasmic domain (aa 658-end), wild type RET kinase, sequence (P07949 658-1114): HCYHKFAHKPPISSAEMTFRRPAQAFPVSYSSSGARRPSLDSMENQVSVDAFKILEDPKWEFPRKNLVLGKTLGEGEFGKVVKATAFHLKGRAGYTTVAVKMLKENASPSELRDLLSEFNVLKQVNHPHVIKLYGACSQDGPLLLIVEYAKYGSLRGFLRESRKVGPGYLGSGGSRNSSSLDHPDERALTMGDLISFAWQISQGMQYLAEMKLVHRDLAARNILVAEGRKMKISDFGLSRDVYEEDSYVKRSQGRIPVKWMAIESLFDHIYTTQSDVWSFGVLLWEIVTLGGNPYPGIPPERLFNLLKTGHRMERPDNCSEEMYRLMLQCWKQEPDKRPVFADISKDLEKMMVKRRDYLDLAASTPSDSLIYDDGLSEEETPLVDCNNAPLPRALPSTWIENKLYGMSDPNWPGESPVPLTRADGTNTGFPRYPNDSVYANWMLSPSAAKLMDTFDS

SMILES: N#Cc1cnn2cc(-c3cnn(C(F)F)c3)cc(-c3ccc(N4CCN(Cc5ccccn5)CC4)nc3)c12 [Example 586, 6-(1-(difluoromethyl)-1H-pyrazol-4-yl)-4-(6-(4-(pyridine-2-ylmethyl)piperazin-1-yl)pyridin-3-yl)pyrazolo[1,5-a]pyridine-3-carbonitrile]
- IC50 [1, 4]: 15.6 nM
- IC50 [2]: ≥ 5000 nM
- IC50 ([3]; wild type RET, 1 mM ATP): 5.2 nM

SMILES: Cn1cc(-c2cc(-c3ccc(N4CCN(C(=O)CC(C)(C)C)CC4)nc3)c3c(Cl)cnn3c2)cn1 [Example 331, 1-(4-(5-(3-chloro-6-(1-methyl-1H-pyrazol-4-yl)pyrazolo[1,5-a]pyridin-4-yl)pyridin-2-yl)piperazin-1-yl)-3,3-dimethylbutan-1-one]
- IC50 [1, 5]: 148 nM
- IC50 ([2]; 10% FBS): 2350 nM
- IC50 ([3]; wild type RET, 1 mM ATP): 31.1 nM

SMILES: CC(C)CNC(=O)N1CCN(c2ccc(-c3cc(-c4cnn(C)c4)cn4ncc(C#N)c34)cn2)CC1 [Example 133, 4-(5-(3-cyano-6-(1-methyl-1H-pyrazol-4-yl)pyrazolo[1,5-a]pyridin-4-yl)pyridin-2-yl)-N-isobutylpiperazine-1-carboxamide]
- IC50 [1, 5]: 1.7 nM
- IC50 ([2]; 10% FBS): 147 nM
- IC50 ([3]; wild type RET, 1 mM ATP): 4.3 nM

SMILES: Cn1cc(-c2cc(-c3ccc(N4CCN(C(=O)CN(C(=O)OC(C)(C)C)C(C)(C)C)CC4)nc3)c3c(C#N)cnn3c2)cn1 [Example 18, tert-butyl tert-butyl(2-(4-(5-(3-cyano-6-(1-methyl-1H-pyrazol-4-yl)pyrazolo[1,5-a]pyridin-4-yl)pyridin-2-yl)piperazin-1-yl)-2-oxoethyl)carbamate]
- IC50 [1, 5]: 19.8 nM
- IC50 ([2]; 10% FBS): 229 nM
- IC50 ([3]; wild type RET, 1 mM ATP): 30.6 nM

SMILES: Cc1cccc(CN2CCN(c3ccc(-c4cc(-c5cnn(C)c5)cn5ncc(C#N)c45)cn3)CC2)n1 [Example 433, 6-(1-methyl-1H-pyrazol-4-yl)-4-(6-(4-((6-methylpyridin-2-yl)methyl)piperazin-l-yl)pyridine-3-yl)pyrazolo[1,5-a]pyridine-3-carbonitrile]
- IC50 [1]: 6 nM
- IC50 [2]: 1080 nM
- IC50 ([3]; wild type RET, 1 mM ATP): 9.7 nM

SMILES: COCC(C)NC(=O)C1(C)CCN(c2ccc(-c3cc(-c4cnn(C)c4)cn4ncc(C#N)c34)cn2)CC1 (centres unmarked) [Example 252, 1-(5-(3-cyano-6-(1-methyl-1H-pyrazol-4-yl)pyrazolo[1,5-a]pyridin-4-yl)pyridin-2-yl)-N-(1-methoxypropan-2-yl)-4-methylpiperidine-4-carboxamide]
- IC50 [1, 5]: 4.8 nM
- IC50 ([2]; 10% FBS): 656 nM
- IC50 ([3]; wild type RET, 1 mM ATP): 11.6 nM

SMILES: CC(C)NC(=O)N1CCN(c2ccc(-c3cc(-c4cnn(C)c4)cn4ncc(C#N)c34)cn2)CC1 [Example 126, 4-(5-(3-cyano-6-(1-methyl-1H-pyrazol-4-yl)pyrazolo[1,5-a]pyridin-4-yl)pyridin-2-yl)-N-isopropylpiperazine-1-carboxamide]
- IC50 [1, 5]: 10.8 nM
- IC50 ([2]; 10% FBS): 347 nM
- IC50 ([3]; wild type RET, 1 mM ATP): 11.7 nM

SMILES: Cn1cc(-c2cc(-c3ccc(N4CCN(C=O)CC4)nc3)c3c(C#N)cnn3c2)cn1 [Example 141, 4-(6-(4-formylpiperazin-1-yl)pyridin-3-yl)-6-(1-methyl-1H-pyrazol-4-yl)pyrazolo[1,5-a]pyridine-3-carbonitrile]
- IC50 [1, 5]: 13.2 nM
- IC50 ([2]; 10% FBS): 203 nM
- IC50 ([3]; wild type RET, 1 mM ATP): 7.4 nM

SMILES: CCC1(C(=O)NC(C)C)CCN(c2ccc(-c3cc(-c4cn(C)nc4C)cn4ncc(C#N)c34)cn2)CC1 [Example 599, 1-(5-(3-cyano-6-(1,3-dimethyl-1H-pyrazol-4-yl)pyrazolo[1,5-a]pyridin-4-yl)pyridin-2-yl)-4-ethyl-N-isopropylpiperidine-4-carboxamide]
- IC50 [1, 4]: 16.5 nM
- IC50 [2]: 4860 nM
- IC50 ([3]; wild type RET, 1 mM ATP): 27.6 nM

SMILES: CC(C)CN(C)C(=O)C1CCN(c2ccc(-c3cc(-c4cnn(C)c4)cn4ncc(C#N)c34)cn2)CC1 [Example 244, 1-(5-(3-cyano-6-(1-methyl-1H-pyrazol-4-yl)pyrazolo[1,5-a]pyridin-4-yl)pyridin-2-yl)-N-isobutyl-N-methylpiperidine-4-carboxamide]
- IC50 [1, 5]: 69.2 nM
- IC50 ([2]; 10% FBS): 660 nM
- IC50 ([3]; wild type RET, 1 mM ATP): 20.9 nM

SMILES: Cn1cc(-c2cc(-c3ccc(N4CCN(C(=O)C(C)(F)F)CC4)nc3)c3c(C#N)cnn3c2)cn1 [Example 59, 4-(6-(4-(2,2-difluoropropanoyl)piperazin-1-yl)pyridin-3-yl)-6-(1-methyl-1H-pyrazol-4-yl)pyrazolo[1,5-a]pyridine-3-carbonitrile]
- IC50 [1, 5]: 26.6 nM
- IC50 ([2]; 10% FBS): 554 nM
- IC50 ([3]; wild type RET, 1 mM ATP): 16.3 nM

SMILES: COC(C)CNC(=O)C1CCN(c2ccc(-c3cc(-c4cnn(C)c4)cn4ncc(C#N)c34)cn2)CC1 (centres unmarked) [Example 239, 1-(5-(3-cyano-6-(1-methyl-1H-pyrazol-4-yl)pyrazolo[1,5-a]pyridin-4-yl)pyridin-2-yl)-N-(2-methoxypropyl) piperidine-4-carboxamide]
- IC50 [1, 5]: 5.8 nM
- IC50 ([2]; 10% FBS): 916 nM
- IC50 ([3]; wild type RET, 1 mM ATP): 8.7 nM

SMILES: CCNC(=O)N1CCN(c2ccc(-c3cc(-c4cnn(C)c4)cn4ncc(C#N)c34)cn2)CC1 [Example 134, 4-(5-(3-cyano-6-(1-methyl-1H-pyrazol-4-yl)pyrazolo[1,5-a]pyridin-4-yl)pyridin-2-yl)-N-ethylpiperazine-1-carboxamide]
- IC50 [1, 5]: 11.5 nM
- IC50 ([2]; 10% FBS): 320 nM
- IC50 ([3]; wild type RET, 1 mM ATP): 5.5 nM

SMILES: COC1CCN(c2ccc(-c3cc(-c4cnn(C)c4)cn4ncc(C#N)c34)cn2)CC1 [Example 198, 4-(6-(4-methoxypiperidin-1-yl)pyridin-3-yl)-6-(1-methyl-1H-pyrazol-4-yl)pyrazolo[1,5-a]pyridine-3-carbonitrile]
- IC50 [1, 5]: 25.3 nM
- IC50 ([2]; 10% FBS): 659 nM
- IC50 ([3]; wild type RET, 1 mM ATP): 14.3 nM

SMILES: Cn1cc(-c2cc(-c3ccc(N4CCNCC4)nc3)c3c(C#N)cnn3c2)cn1 [Example 2, 6-(1-methyl-1H-pyrazol-4-yl)-4-(6-(piperazin-1-yl)pyridin-3-yl)pyrazolo[1,5-a]pyridine-3-carbonitrile dihydrochloride]
- IC50 [1, 5]: 111 nM
- IC50 ([2]; 10% FBS): 1080 nM
- IC50 [3]: 19.6 nM

SMILES: COc1ccc(CN2CCN(c3ccc(-c4cc(-c5cnn(CC(C)CO)c5)cn5ncc(C#N)c45)cn3)CC2)cn1 (stereo in doubt) [Example 707, (R)-6-(1-(3-hydroxy-2-methylpropyl)-1H-pyrazol-4-yl)-4-(6-(4-((6-methoxypyridin-3-yl)methyl)piperazin-1-yl)pyridin-3-yl)pyrazolo[1,5-a]pyridine-3-carbonitrile]
- IC50 [1, 4]: 6.5 nM
- IC50 ([3]; wild type RET, 1 mM ATP): 20.1 nM

SMILES: CC[C@@H](CO)NC(=O)N1CCN(c2ccc(-c3cc(-c4cnn(C)c4)cn4ncc(C#N)c34)cn2)CC1 [Example 122, (S)-4-(5-(3-cyano-6-(1-methyl-1H-pyrazol-4-yl)pyrazolo[1,5-a]pyridin-4-yl)pyridin-2-yl)-N-(1-hydroxybutan-2-yl)piperazine-1-carboxamide]
- IC50 [1, 5]: 267 nM
- IC50 ([3]; wild type RET, 1 mM ATP): 11.3 nM

SMILES: COc1ccc(CN2CCN(c3ccc(-c4cc(-c5cnn(CCC(=O)N(C)C)c5)cn5ncc(C#N)c45)cn3)CC2)cn1 [Example 706, 3-(4-(3-cyano-4-(6-(4-((6-methoxypyridin-3-yl)methyl)piperazin-1-yl)pyridin-3-yl)pyrazolo[1,5-a]pyridin-6-yl)-1H-pyrazol-1-yl)-N,N-dimethylpropanamide]
- IC50 [1, 4]: 6.4 nM
- IC50 ([3]; wild type RET, 1 mM ATP): 18.3 nM

SMILES: CN(C)CCCC(=O)N1CCN(c2ccc(-c3cc(-c4cnn(C)c4)cn4ncc(C#N)c34)cn2)CC1 [Example 52, 4-(6-(4-(4-(dimethylamino)butanoyl)piperazin-1-yl)pyridin-3-yl)-6-(1-methyl-1H-pyrazol-4-yl)pyrazolo[1,5-a]pyridine-3-carbonitrile bis(2,2,2-trifluoroacetate)]
- IC50 [1, 5]: 340 nM
- IC50 [3]: 17.7 nM

SMILES: CC(C)S(=O)(=O)CCN1CCN(c2ccc(-c3cc(-c4cnn(C)c4)cn4ncc(C#N)c34)cn2)CC1 [Example 403, 4-(6-(4-(2-(isopropylsulfonyl)ethyl)piperazin-1-yl)pyridin-3-yl)-6-(1-methyl-1H-pyrazol-4-yl)pyrazolo[1,5-a]pyridine-3-carbonitrile]
- IC50 [1, 4]: 4.6 nM
- IC50 ([3]; wild type RET, 1 mM ATP): 10.8 nM

SMILES: COc1ccc(CN2CCN(c3ccc(-c4cc(-c5cnn(CCOC(C)C)c5)cn5ncc(C#N)c45)cn3)CC2)cn1 [Example 704, 6-(1-(2-isopropoxyethyl)-1H-pyrazol-4-yl)-4-(6-(4-((6-methoxypyridin-3-yl)methyl)piperazin-1-yl)pyridin-3-yl)pyrazolo[1,5-a]pyridine-3-carbonitrile]
- IC50 [1]: 8.3 nM
- IC50 ([3]; wild type RET, 1 mM ATP): 30.1 nM

SMILES: Cc1nn(C(C)(C)C)cc1-c1cc(-c2ccc(N3CCN(Cc4ccccc4)CC3)nc2)c2c(C#N)cnn2c1 [Example 616, 4-(6-(4-benzylpiperazin-1-yl)pyridin-3-yl)-6-(1-(tert-butyl)-3-methyl-1H-pyrazol-4-yl)pyrazolo[1,5-a]pyridine-3-carb onitrile]
- IC50 [1]: 85.2 nM
- IC50 ([3]; wild type RET, 1 mM ATP): 60.8 nM
